Reference: the supplement of paper PMC10307832

How the values were obtained:
Assay in all cases: relative viability (nuclei count vs DMSO), 5 days (fraction); higher = more cells survive
Bosutinib + Bortezomib = compound: COc1cc(Nc2c(C#N)cnc3cc(OCCCN4CCN(C)CC4)c(OC)cc23)c(Cl)cc1Cl [Bosutinib] + CC(C)C[C@H](NC(=O)[C@H](Cc1ccccc1)NC(=O)c1cnccn1)B(O)O [Bortezomib] (partner 0.002 µM)
How it was run: (§1)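 Each reported value is a median over duplicate plates. It expresses relative viability: treated-well nuclei count divided by vehicle-well nuclei count. Lung cancer cell lines in 1536-well plates were dosed by pin tool a day after seeding, alone with one drug or with a fixed anchor-drug dose plus five library-drug doses (not always all listed) in √10 steps, and nuclei were counted after 5 days.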

Bosutinib + Luminespib = compound: COc1cc(Nc2c(C#N)cnc3cc(OCCCN4CCN(C)CC4)c(OC)cc23)c(Cl)cc1Cl [Bosutinib] + CCNC(=O)c1noc(-c2cc(C(C)C)c(O)cc2O)c1-c1ccc(CN2CCOCC2)cc1 [Luminespib] (partner 0.01 µM)
How it was run: as §1

Bosutinib + Foretinib = compound: COc1cc(Nc2c(C#N)cnc3cc(OCCCN4CCN(C)CC4)c(OC)cc23)c(Cl)cc1Cl [Bosutinib] + COc1cc2c(Oc3ccc(NC(=O)C4(C(=O)Nc5ccc(F)cc5)CC4)cc3F)ccnc2cc1OCCCN1CCOCC1 [Foretinib] (partner 0.25 µM)
How it was run: as §1

Bosutinib + Tozasertib = compound: COc1cc(Nc2c(C#N)cnc3cc(OCCCN4CCN(C)CC4)c(OC)cc23)c(Cl)cc1Cl [Bosutinib] + Cc1cc(Nc2cc(N3CCN(C)CC3)nc(Sc3ccc(NC(=O)C4CC4)cc3)n2)n[nH]1 [Tozasertib] (partner 0.1 µM)
How it was run: as §1

Bosutinib + Vorinostat = compound: COc1cc(Nc2c(C#N)cnc3cc(OCCCN4CCN(C)CC4)c(OC)cc23)c(Cl)cc1Cl [Bosutinib] + O=C(CCCCCCC(=O)Nc1ccccc1)NO [Vorinostat] (partner 1 µM)
How it was run: as §1

Cell Line: 201T
- relative viability (Bosutinib + Bortezomib; first compound 0.01 µM): 1.16
- relative viability (Bosutinib + Bortezomib; first compound 0.03162 µM): 1.05
- relative viability (Bosutinib + Bortezomib; first compound 0.1 µM): 1.14
- relative viability (Bosutinib + Bortezomib; first compound 1 µM): 1.05
- relative viability (Bosutinib + Luminespib; first compound 0.01 µM): 1.01
- relative viability (Bosutinib + Luminespib; first compound 0.03162 µM): 1.06
- relative viability (Bosutinib + Luminespib; first compound 0.1 µM): 1.02
- relative viability (Bosutinib + Luminespib; first compound 1 µM): 0.848
- relative viability (Bosutinib + Foretinib; first compound 0.01 µM): 1.08
- relative viability (Bosutinib + Foretinib; first compound 0.03162 µM): 1.06
- relative viability (Bosutinib + Foretinib; first compound 0.1 µM): 0.991
- relative viability (Bosutinib + Foretinib; first compound 1 µM): 0.548
- relative viability (Bosutinib + Tozasertib; first compound 0.01 µM): 0.92
- relative viability (Bosutinib + Tozasertib; first compound 0.03162 µM): 0.913
- relative viability (Bosutinib + Tozasertib; first compound 0.1 µM): 0.951
- relative viability (Bosutinib + Tozasertib; first compound 1 µM): 0.713
- relative viability (Bosutinib + Vorinostat; first compound 0.01 µM): 0.941
- relative viability (Bosutinib + Vorinostat; first compound 0.03162 µM): 1.04
- relative viability (Bosutinib + Vorinostat; first compound 0.1 µM): 1
- relative viability (Bosutinib + Vorinostat; first compound 1 µM): 0.894

Cell Line: A-427
- relative viability (Bosutinib + Bortezomib; first compound 0.01 µM): 0.958
- relative viability (Bosutinib + Bortezomib; first compound 0.03162 µM): 1.04
- relative viability (Bosutinib + Bortezomib; first compound 0.1 µM): 1.08
- relative viability (Bosutinib + Bortezomib; first compound 1 µM): 0.958
- relative viability (Bosutinib + Luminespib; first compound 0.01 µM): 0.959
- relative viability (Bosutinib + Luminespib; first compound 0.03162 µM): 0.953
- relative viability (Bosutinib + Luminespib; first compound 0.1 µM): 0.936
- relative viability (Bosutinib + Luminespib; first compound 1 µM): 0.745
- relative viability (Bosutinib + Foretinib; first compound 0.01 µM): 1.02
- relative viability (Bosutinib + Foretinib; first compound 0.03162 µM): 1
- relative viability (Bosutinib + Foretinib; first compound 0.1 µM): 1.14
- relative viability (Bosutinib + Foretinib; first compound 1 µM): 0.972
- relative viability (Bosutinib + Tozasertib; first compound 0.01 µM): 0.231
- relative viability (Bosutinib + Tozasertib; first compound 0.03162 µM): 0.227
- relative viability (Bosutinib + Tozasertib; first compound 0.1 µM): 0.217
- relative viability (Bosutinib + Tozasertib; first compound 1 µM): 0.194
- relative viability (Bosutinib + Vorinostat; first compound 0.01 µM): 0.87
- relative viability (Bosutinib + Vorinostat; first compound 0.03162 µM): 0.888
- relative viability (Bosutinib + Vorinostat; first compound 0.1 µM): 0.833
- relative viability (Bosutinib + Vorinostat; first compound 1 µM): 0.846

Cell Line: ABC-1
- relative viability (Bosutinib + Bortezomib; first compound 0.01 µM): 0.331
- relative viability (Bosutinib + Bortezomib; first compound 0.03162 µM): 0.338
- relative viability (Bosutinib + Bortezomib; first compound 0.1 µM): 0.312
- relative viability (Bosutinib + Bortezomib; first compound 1 µM): 0.33
- relative viability (Bosutinib + Luminespib; first compound 0.01 µM): 0.665
- relative viability (Bosutinib + Luminespib; first compound 0.03162 µM): 0.536
- relative viability (Bosutinib + Luminespib; first compound 0.1 µM): 0.713
- relative viability (Bosutinib + Luminespib; first compound 1 µM): 0.481
- relative viability (Bosutinib + Foretinib; first compound 0.01 µM): 0.902
- relative viability (Bosutinib + Foretinib; first compound 0.03162 µM): 1.17
- relative viability (Bosutinib + Foretinib; first compound 0.1 µM): 1.21
- relative viability (Bosutinib + Foretinib; first compound 1 µM): 0.895
- relative viability (Bosutinib + Tozasertib; first compound 0.01 µM): 0.217
- relative viability (Bosutinib + Tozasertib; first compound 0.03162 µM): 0.168
- relative viability (Bosutinib + Tozasertib; first compound 0.1 µM): 0.144
- relative viability (Bosutinib + Tozasertib; first compound 1 µM): 0.177
- relative viability (Bosutinib + Vorinostat; first compound 0.01 µM): 1.18
- relative viability (Bosutinib + Vorinostat; first compound 0.03162 µM): 1.08
- relative viability (Bosutinib + Vorinostat; first compound 0.1 µM): 1.32
- relative viability (Bosutinib + Vorinostat; first compound 1 µM): 1.14

Cell Line: BEN
- relative viability (Bosutinib + Bortezomib; first compound 0.01 µM): 0.726
- relative viability (Bosutinib + Bortezomib; first compound 0.03162 µM): 0.986
- relative viability (Bosutinib + Bortezomib; first compound 0.1 µM): 0.923
- relative viability (Bosutinib + Bortezomib; first compound 1 µM): 0.765
- relative viability (Bosutinib + Luminespib; first compound 0.01 µM): 0.442
- relative viability (Bosutinib + Luminespib; first compound 0.03162 µM): 0.282
- relative viability (Bosutinib + Luminespib; first compound 0.1 µM): 0.478
- relative viability (Bosutinib + Luminespib; first compound 1 µM): 0.434
- relative viability (Bosutinib + Foretinib; first compound 0.01 µM): 0.755
- relative viability (Bosutinib + Foretinib; first compound 0.03162 µM): 0.637
- relative viability (Bosutinib + Foretinib; first compound 0.1 µM): 0.682
- relative viability (Bosutinib + Foretinib; first compound 1 µM): 0.516
- relative viability (Bosutinib + Tozasertib; first compound 0.01 µM): 0.499
- relative viability (Bosutinib + Tozasertib; first compound 0.03162 µM): 0.439
- relative viability (Bosutinib + Tozasertib; first compound 0.1 µM): 0.48
- relative viability (Bosutinib + Tozasertib; first compound 1 µM): 0.539
- relative viability (Bosutinib + Vorinostat; first compound 0.01 µM): 0.557
- relative viability (Bosutinib + Vorinostat; first compound 0.03162 µM): 0.56
- relative viability (Bosutinib + Vorinostat; first compound 0.1 µM): 0.654
- relative viability (Bosutinib + Vorinostat; first compound 1 µM): 0.514

Cell Line: CAL-12T
- relative viability (Bosutinib + Bortezomib; first compound 0.01 µM): 0.888
- relative viability (Bosutinib + Bortezomib; first compound 0.03162 µM): 1.15
- relative viability (Bosutinib + Bortezomib; first compound 0.1 µM): 1.18
- relative viability (Bosutinib + Bortezomib; first compound 1 µM): 1.01
- relative viability (Bosutinib + Luminespib; first compound 0.01 µM): 0.516
- relative viability (Bosutinib + Luminespib; first compound 0.03162 µM): 0.587
- relative viability (Bosutinib + Luminespib; first compound 0.1 µM): 0.335
- relative viability (Bosutinib + Luminespib; first compound 1 µM): 0.204
- relative viability (Bosutinib + Foretinib; first compound 0.01 µM): 1.11
- relative viability (Bosutinib + Foretinib; first compound 0.03162 µM): 1.09
- relative viability (Bosutinib + Foretinib; first compound 0.1 µM): 1.11
- relative viability (Bosutinib + Foretinib; first compound 1 µM): 0.834
- relative viability (Bosutinib + Tozasertib; first compound 0.01 µM): 0.32
- relative viability (Bosutinib + Tozasertib; first compound 0.03162 µM): 0.316
- relative viability (Bosutinib + Tozasertib; first compound 0.1 µM): 0.322
- relative viability (Bosutinib + Tozasertib; first compound 1 µM): 0.318
- relative viability (Bosutinib + Vorinostat; first compound 0.01 µM): 0.756
- relative viability (Bosutinib + Vorinostat; first compound 0.03162 µM): 0.773
- relative viability (Bosutinib + Vorinostat; first compound 0.1 µM): 0.664
- relative viability (Bosutinib + Vorinostat; first compound 1 µM): 0.528

Cell Line: COR-L23
- relative viability (Bosutinib + Bortezomib; first compound 0.01 µM): 1.07
- relative viability (Bosutinib + Bortezomib; first compound 0.03162 µM): 1.03
- relative viability (Bosutinib + Bortezomib; first compound 0.1 µM): 1.01
- relative viability (Bosutinib + Bortezomib; first compound 1 µM): 1.01
- relative viability (Bosutinib + Luminespib; first compound 0.01 µM): 0.613
- relative viability (Bosutinib + Luminespib; first compound 0.03162 µM): 0.685
- relative viability (Bosutinib + Luminespib; first compound 0.1 µM): 0.76
- relative viability (Bosutinib + Luminespib; first compound 1 µM): 0.56
- relative viability (Bosutinib + Foretinib; first compound 0.01 µM): 1.04
- relative viability (Bosutinib + Foretinib; first compound 0.03162 µM): 0.938
- relative viability (Bosutinib + Foretinib; first compound 0.1 µM): 0.971
- relative viability (Bosutinib + Foretinib; first compound 1 µM): 0.967
- relative viability (Bosutinib + Tozasertib; first compound 0.01 µM): 0.195
- relative viability (Bosutinib + Tozasertib; first compound 0.03162 µM): 0.236
- relative viability (Bosutinib + Tozasertib; first compound 0.1 µM): 0.194
- relative viability (Bosutinib + Tozasertib; first compound 1 µM): 0.198
- relative viability (Bosutinib + Vorinostat; first compound 0.01 µM): 0.535
- relative viability (Bosutinib + Vorinostat; first compound 0.03162 µM): 0.553
- relative viability (Bosutinib + Vorinostat; first compound 0.1 µM): 0.431
- relative viability (Bosutinib + Vorinostat; first compound 1 µM): 0.561

Cell Line: COR-L 105
- relative viability (Bosutinib + Bortezomib; first compound 0.01 µM): 0.778
- relative viability (Bosutinib + Bortezomib; first compound 0.03162 µM): 0.9
- relative viability (Bosutinib + Bortezomib; first compound 0.1 µM): 0.705
- relative viability (Bosutinib + Bortezomib; first compound 1 µM): 0.446
- relative viability (Bosutinib + Luminespib; first compound 0.01 µM): 0.882
- relative viability (Bosutinib + Luminespib; first compound 0.03162 µM): 0.635
- relative viability (Bosutinib + Luminespib; first compound 0.1 µM): 0.669
- relative viability (Bosutinib + Luminespib; first compound 1 µM): 0.471
- relative viability (Bosutinib + Foretinib; first compound 0.01 µM): 1.05
- relative viability (Bosutinib + Foretinib; first compound 0.03162 µM): 1.05
- relative viability (Bosutinib + Foretinib; first compound 0.1 µM): 0.895
- relative viability (Bosutinib + Foretinib; first compound 1 µM): 0.844
- relative viability (Bosutinib + Tozasertib; first compound 0.01 µM): 0.344
- relative viability (Bosutinib + Tozasertib; first compound 0.03162 µM): 0.371
- relative viability (Bosutinib + Tozasertib; first compound 0.1 µM): 0.325
- relative viability (Bosutinib + Tozasertib; first compound 1 µM): 0.308
- relative viability (Bosutinib + Vorinostat; first compound 0.01 µM): 0.861
- relative viability (Bosutinib + Vorinostat; first compound 0.03162 µM): 0.844
- relative viability (Bosutinib + Vorinostat; first compound 0.1 µM): 0.828
- relative viability (Bosutinib + Vorinostat; first compound 1 µM): 0.624

Cell Line: ChaGo-K-1
- relative viability (Bosutinib + Bortezomib; first compound 0.01 µM): 0.922
- relative viability (Bosutinib + Bortezomib; first compound 0.03162 µM): 1.12
- relative viability (Bosutinib + Bortezomib; first compound 0.1 µM): 1.12
- relative viability (Bosutinib + Bortezomib; first compound 1 µM): 1.37
- relative viability (Bosutinib + Luminespib; first compound 0.01 µM): 0.622
- relative viability (Bosutinib + Luminespib; first compound 0.03162 µM): 0.555
- relative viability (Bosutinib + Luminespib; first compound 0.1 µM): 0.47
- relative viability (Bosutinib + Luminespib; first compound 1 µM): 0.585
- relative viability (Bosutinib + Foretinib; first compound 0.01 µM): 1
- relative viability (Bosutinib + Foretinib; first compound 0.03162 µM): 0.866
- relative viability (Bosutinib + Foretinib; first compound 0.1 µM): 0.981
- relative viability (Bosutinib + Foretinib; first compound 1 µM): 0.931
- relative viability (Bosutinib + Tozasertib; first compound 0.01 µM): 0.22
- relative viability (Bosutinib + Tozasertib; first compound 0.03162 µM): 0.254
- relative viability (Bosutinib + Tozasertib; first compound 0.1 µM): 0.224
- relative viability (Bosutinib + Tozasertib; first compound 1 µM): 0.213
- relative viability (Bosutinib + Vorinostat; first compound 0.01 µM): 0.808
- relative viability (Bosutinib + Vorinostat; first compound 0.03162 µM): 0.847
- relative viability (Bosutinib + Vorinostat; first compound 0.1 µM): 0.792
- relative viability (Bosutinib + Vorinostat; first compound 1 µM): 0.789
